Experimental data reported in patent publication US20120137390A1, “MATERIALS AND METHODS FOR REGENERATION AND TRANSFORMATION OF TREES” (ArborGen Inc., priority 2009, published 2012).

Key:
Format in all cases: cell-based
[1] = system: E. grandis clone 6075 explants; test: Adventitious shoot regeneration from explants on regeneration medium, clone 6075
Method: (§1) Plant Materials and culture conditions. All elite clones were maintained as shoot clumps in Eucalyptus maintenance (EM) medium (Table 1) in magenta boxes or large disposable vessels and subcultured every 4-6 weeks. Shoot clumps were divided as needed and maintained as stock culture. Unless noted otherwise, all cultures were grown under shaded, cool fluorescent light with a light intensity of 30-40 gE/m^2/s with a photoperiod of 16 hours, and a temperature of 21° C.
(§2) Although leaves, petioles, internodes, floral tissues, and embryogenic tissues can be used for transformation and subsequent regeneration, leaf explants were selected because leaves are abundant. For transformation, explants of E. grandis clones 6075 and 6084 were incubated with Agrobacterium and were placed on co-culture medium, which was the same as the regeneration medium (Table 2) except with the following modifications: the addition of Agrobacterium inducer acetosyringone and the addition of plant growth regulators that are enriched in auxin. MS medium (Murashige and Skoog 1962) was used in the present co-culture medium; however, other salt media, such as Woody Plant Medium (WPM) salts (Loyd and McCown, 1980) or Lepoivre medium, may be used. Also, other Agrobacterium inducers may be used. Plant explants were co-cultured for four days under low light conditions or in the dark on the co-culture medium.
(§3) To test the ability of various cytokinins to stimulate adventitious regeneration, the effects of 4-CPPU, Zeatin, TDZ, meta-topolin, and adenine sulfate were compared. The levels of cytokinins varied from 0.025 to 10 μM. The base medium for this matrix is named H2—2.0 (or H2—2 for short), which is the primary MS-based regeneration medium (Table 2). The medium has been effective to induce shoot regeneration from many Eucalyptus species including E. grandis, E. dunnii, E. camaldulensis, E. urophylla, E. occidentalis, and E. saligna. The antibiotic timentin was added at 250 mg/L final concentration. Shoot regeneration was measured as the frequency of explants produced shoots. Explants were cultured on the regeneration medium for about 8-10 weeks before collection of final regeneration data.

[2] = system: E. grandis clone 6084 explants; test: Adventitious shoot regeneration from explants on regeneration medium, clone 6084
Method: as §1, §2, §3

[3] = system: E. amplifolia clone EA5490; test: Regeneration screening matrix, clone EA5490; settings: meta-topolin at least 2.5 μM
Method: as §3
(§4) Combinations of meta-mopolin, 4-CPPU, and TDZ that gave the best regeneration across multiple experiments were combined with two standard regeneration media that have worked with other clones in the past to become a regeneration screening matrix for new clonal material.

[4] = system: E. urophylla X grandis S-519; test: Regeneration screening matrix, clone S-519; settings: meta-topolin at least 2.5 μM, clone S519
Method: as §3, §4

[5] = lower concentrations of 4-CPPU (0.025, 0.05 μM)

In the case of `O=C(Nc1ccccc1)Nc1ccnc(Cl)c1` [4-CPPU, N-(2-Chloro-4-pyridyl)-N′-phenylurea], the “adventitious shoot formation (in words)” value ([1]; 4-CPPU at 0.1 μM) was “effective”, the “adventitious shoot formation (in words)” value [1, 5] was “not effective in induce adventitious shoot formation” and the “adventitious shoot formation (in words)” value ([2]; 4-CPPU at 0.1 μM) was “effective”. The “adventitious shoot formation (in words)” value [2, 5] was “not effective in induce adventitious shoot formation”.
In the case of `O=C(Nc1ccccc1)Nc1cnns1` [TDZ, 1-phenyl-3-(1,2,3-thiadiazol-5-yl)urea], the “promotion of shoot regeneration (in words)” value ([1]; TDZ alone at 0.1 μM) was “not effective in promotion of shoot regeneration” and the “promotion of shoot regeneration (in words)” value ([2]; TDZ alone at 0.1 μM) was “not effective in promotion of shoot regeneration”.
In the case of `Oc1cccc(CNc2ncnc3nc[nH]c23)c1` [meta-topolin, N^6-(meta-hydroxybenzyl)adenine], the “adventitious shoot regeneration (in words)” value [3] was “significantly higher adventitious shoot regeneration”, the “adventitious shoot formation (in words)” value ([1]; meta-topolin at least 2.5 μM) was “significant increase in adventitious shoot formation” and the “adventitious shoot formation (in words)” value ([2]; meta-topolin at least 2.5 μM) was “significant increase in adventitious shoot formation”. For the same compound, the “adventitious shoot regeneration (in words)” value [4] was “significantly higher adventitious shoot regeneration”.
